From PubChem BioAssay AID1259411 (Chemical Carcinogenesis Research Information System (CCRIS), 2018)
Activity calls are given as the source filed them. The rule behind the calls is not given here.

Tested on: rodent carcinogenicity bioassays, tumor incidence
Experiment: CCRIS carcinogenicity studies
In short: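 NCI-built, expert-reviewed records of carcinogenicity and related test outcomes (mutagenicity, tumor promotion/inhibition) compiled from published and report sources, historical span 1985-2011, not updated.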

Q: How did the carcinogen call (Species: DUCK, Route: ORAL, Tumor Site: Type of Lesion: LIVER) turn out when `CN(C)N=O` was run?
A: active; positive

Q: What about the carcinogen call (Species: FISH, Route: ORAL, Tumor Site: Type of Lesion: LIVER) of the same compound?
A: active; positive

Q: And the carcinogen call (Species: GUINEA PIG, Route: ORAL, Tumor Site: Type of Lesion: LIVER)?
A: active; positive

Q: And the carcinogen call (Species: HAMSTER, Route: ORAL, Tumor Site: Type of Lesion: LIVER)?
A: active; positive

Q: And the carcinogen call (Species: HAMSTER, Route: SUBCUTANEOUS, Tumor Site: Type of Lesion: LIVER, KIDNEY, NASAL CAVITY, Tumor Site: Type of Lesion: LIVER, KIDNEY, NASAL CAVITY)?
A: active; positive

Q: And the carcinogen call (Species: HAMSTER, Strain/Sex: SYRIAN/MALE, Route: INTRATRACHEAL, Dose: 0, 0.05, 0.1 MG IN PHOSPHATE BUFFER 1/WK FOR 15 WK (TOTAL DOSE: 0; 0.75; 0.5 MG) (STUDY DURATION: LIFESPAN), Dose: 0, 0.05, 0.1 MG IN PHOSPHATE BUFFER 1/WK FOR 15 WK (TOTAL DOSE: 0; 0.75; 0.5 MG) (STUDY DURATION: LIFESPAN), Tumor Site: Type of Lesion: LIVER: HEMANGIOSARCOMA, TUMOR)?
A: active; positive

Q: And the carcinogen call (Species: HAMSTER, Strain/Sex: SYRIAN/MALE, Route: INTRATRACHEAL, Dose: 0, 0.5 MG IN PHOSPHATE BUFFER ONCE (STUDY DURATION: LIFESPAN))?
A: inactive; negative

Q: And the carcinogen call (Species: MOUSE, Route: INHALATION, Tumor Site: Type of Lesion: LIVER, LUNG, KIDNEY, Tumor Site: Type of Lesion: LIVER, LUNG, KIDNEY)?
A: active; positive

Q: And the carcinogen call (Species: MOUSE, Route: INTRAPERITONEAL, Tumor Site: Type of Lesion: LIVER, LUNG, KIDNEY, Tumor Site: Type of Lesion: LIVER, LUNG, KIDNEY)?
A: active; positive

Q: What about the carcinogen call (Species: MOUSE, Route: ORAL, Tumor Site: Type of Lesion: LIVER, LUNG, KIDNEY, Tumor Site: Type of Lesion: LIVER, LUNG, KIDNEY) of the same compound?
A: active; positive

Q: What about the carcinogen call (Species: MOUSE, Route: SUBCUTANEOUS, Tumor Site: Type of Lesion: LIVER, LUNG) of the same compound?
A: active; positive

Q: And the carcinogen call (Species: MOUSE, Strain/Sex: C3H/FEMALE, Route: TRANSPLACENTAL, Dose: 0, 0.1 MMOL IN 0.9% STERILE SALINE (7.4 MG/KG) ON DAY 16 OF GESTATION (STUDY DURATION: LIFETIME), Tumor Site: Type of Lesion: LIVER: CARCINOMA)?
A: active; positive

Q: What about the carcinogen call (Species: MOUSE, Strain/Sex: C3H/FEMALE, Route: TRANSPLACENTAL, Dose: 0, 0.1 MMOL IN 0.9% STERILE SALINE (7.4 MG/KG) ON DAY 19 OF GESTATION (STUDY DURATION: LIFETIME), Tumor Site: Type of Lesion: LIVER: CARCINOMA) of the same compound?
A: active; positive

Q: What about the carcinogen call (Species: MOUSE, Strain/Sex: C3H/MALE, Route: TRANSPLACENTAL, Dose: 0, 0.1 MMOL IN 0.9% STERILE SALINE (7.4 MG/KG) ON DAY 16 OF GESTATION (STUDY DURATION: LIFETIME)) of the same compound?
A: inactive; negative

Q: What about the carcinogen call (Species: MOUSE, Strain/Sex: C3H/MALE, Route: TRANSPLACENTAL, Dose: 0, 0.1 MMOL IN 0.9% STERILE SALINE (7.4 MG/KG) ON DAY 19 OF GESTATION (STUDY DURATION: LIFETIME), Tumor Site: Type of Lesion: LIVER: CARCINOMA) of the same compound?
A: active; positive

Q: What about the carcinogen call (Species: MOUSE, Strain/Sex: STRAIN-A/FEMALE, Route: INTRAPERITONEAL, Dose: 0, 5, 20 UMOL TOTAL DOSE ADMINISTERED IN SUBDOSES 3/WK FOR 7 WK (STUDY DURATION: 37 WK), Dose: 0, 5, 20 UMOL TOTAL DOSE ADMINISTERED IN SUBDOSES 3/WK FOR 7 WK (STUDY DURATION: 37 WK), Tumor Site: Type of Lesion: LUNG: TUMOR) of the same compound?
A: active; positive

Q: And the carcinogen call (Species: RABBIT, Route: ORAL, Tumor Site: Type of Lesion: LIVER)?
A: active; positive

Q: What about the carcinogen call (Species: RAT, Route: INHALATION, Tumor Site: Type of Lesion: NASAL CAVITY) of the same compound?
A: active; positive

Q: What about the carcinogen call (Species: RAT, Route: ORAL, Tumor Site: Type of Lesion: LIVER, KIDNEY) of the same compound?
A: active; positive

Q: And the carcinogen call (Species: RAT, Route: SUBCUTANEOUS, INTRAPERITONEAL, Tumor Site: Type of Lesion: KIDNEY)?
A: active; positive

Q: What about the carcinogen call (Species: RAT, Strain/Sex: F344/FEMALE, Route: INTRAVESICULAR, Dose: 0, 2 MG IN 0.2 ML ETHANOL: DEIONIZED WATER (1:3) 2/WK FOR 30 WK (TOTAL DOSE: 1.6 MMOL) (STUDY DURATION: LIFESPAN), Tumor Site: Type of Lesion: KIDNEY: MESENCHYMAL NEOPLASM, LUNG: TUMOR) of the same compound?
A: active; positive

Q: And the carcinogen call (Species: RAT, Strain/Sex: SPRAGUE-DAWLEY/FEMALE, Route: INHALATION, Dose: 0, 0.04, 0.2, 1 PPM 4-5 HR/D 4 D/WK FOR 207 D (ESTIMATED DAILY UPTAKE OF 0; 10; 40; 180 UG/KG) (STUDY DURATION: 207 D), Dose: 0, 0.04, 0.2, 1 PPM 4-5 HR/D 4 D/WK FOR 207 D (ESTIMATED DAILY UPTAKE OF 0; 10; 40; 180 UG/KG) (STUDY DURATION: 207 D), Tumor Site: Type of Lesion: NASAL CAVITY: TUMOR)?
A: active; positive

Q: And the carcinogen call (Species: RAT, Strain/Sex: WISTAR/FEMALE, Route: INTRAPERITONEAL, Dose: 0, 0.04% IN 0.1-0.2 ML PHYSIOLOGICAL SALINE 1/D FOR D 1-5 OF LIFE (TOTAL DOSE 0.2 MG) (STUDY DURATION: LIFESPAN OR 1 YR), Tumor Site: Type of Lesion: LIVER: HEPATOCELLULAR CARCINOMA, HEPATOMA, CHOLANGIOMA, ANGIOMA, KIDNEY: MESENCHYMAL TUMOR, EPITHELIAL TUMOR)?
A: active; positive

Q: And the carcinogen call (Species: RAT, Strain/Sex: WISTAR/FEMALE, Route: INTRAPERITONEAL, Dose: 0, 0.04% IN 0.1-0.2 ML PHYSIOLOGICAL SALINE 1/D FOR D 1-10 OF LIFE (TOTAL DOSE 0.4 MG) (STUDY DURATION: LIFESPAN OR 1 YR, Tumor Site: Type of Lesion: LIVER: HEPATOCELLULAR CARCINOMA, HEPATOMA, CHOLANGIOMA, ANGIOMA, KIDNEY: MESENCHYMAL TUMOR, EPITHELIAL TUMOR)?
A: active; positive

Q: What about the carcinogen call (Species: RAT, Strain/Sex: WISTAR/FEMALE, Route: INTRAPERITONEAL, Dose: 0, 0.04% IN 0.1-0.2 ML PHYSIOLOGICAL SALINE 1/D FOR D 1-20 OF LIFE (TOTAL DOSE 0.5 MG) (STUDY DURATION: LIFESPAN OR 1 YR, Tumor Site: Type of Lesion: LIVER: HEPATOCELLULAR CARCINOMA, HEPATOMA, ANGIOMA, KIDNEY: MESENCHYMAL TUMOR) of the same compound?
A: active; positive

Q: And the carcinogen call (Species: RAT, Strain/Sex: WISTAR/FEMALE, Route: ORAL, Dose: 0, 0.033, 0.066, 0.132, 0.264, 0.528, 1.056, 1.584, 2.112, 2.640, 3.168, 4.224, 5.280, 6.336, 8.448, 16.896 PPM IN DRINK, Dose: 0, 0.033, 0.066, 0.132, 0.264, 0.528, 1.056, 1.584, 2.112, 2.640, 3.168, 4.224, 5.280, 6.336, 8.448, 16.896 PPM IN DRINK, Tumor Site: Type of Lesion: LIVER: HEPATOCELLULAR CARCINOMA, HEMANGIOMA, BILE DUCT: TUMOR)?
A: active; positive

Q: And the carcinogen call (Species: RAT, Strain/Sex: WISTAR/MALE, Route: INTRAPERITONEAL, Dose: 0, 0.04% IN 0.1-0.2 ML PHYSIOLOGICAL SALINE 1/D FOR D 1-5 OF LIFE (TOTAL DOSE 0.2 MG) (STUDY DURATION: LIFESPAN OR 1 YR), Tumor Site: Type of Lesion: LIVER: HEPATOCELLULAR CARCINOMA, HEPATOMA, CHOLANGIOMA, KIDNEY: MESENCHYMAL TUMOR, EPITHELIAL TUMOR)?
A: active; positive

Q: What about the carcinogen call (Species: RAT, Strain/Sex: WISTAR/MALE, Route: INTRAPERITONEAL, Dose: 0, 0.04% IN 0.1-0.2 ML PHYSIOLOGICAL SALINE 1/D FOR D 1-10 OF LIFE (TOTAL DOSE 0.4 MG) (STUDY DURATION: LIFESPAN OR 1 YR, Tumor Site: Type of Lesion: LIVER: HEPATOCELLULAR CARCINOMA, HEPATOMA, CHOLANGIOMA, ANGIOMA, KIDNEY: MESENCHYMAL TUMOR, EPITHELIAL TUMOR) of the same compound?
A: active; positive

Q: What about the carcinogen call (Species: RAT, Strain/Sex: WISTAR/MALE, Route: INTRAPERITONEAL, Dose: 0, 0.04% IN 0.1-0.2 ML PHYSIOLOGICAL SALINE 1/D FOR D 1-20 OF LIFE (TOTAL DOSE 0.5 MG) (STUDY DURATION: LIFESPAN OR 1 YR, Tumor Site: Type of Lesion: LIVER: HEPATOCELLULAR CARCINOMA, HEPATOMA, ANGIOMA, KIDNEY: MESENCHYMAL TUMOR) of the same compound?
A: active; positive

Q: What about the carcinogen call (Species: RAT, Strain/Sex: WISTAR/MALE, Route: ORAL, Dose: 0, 0.033, 0.066, 0.132, 0.264, 0.528, 1.056, 1.584, 2.112, 2.640, 3.168, 4.224, 5.280, 6.336, 8.448, 16.896 PPM IN DRINK, Dose: 0, 0.033, 0.066, 0.132, 0.264, 0.528, 1.056, 1.584, 2.112, 2.640, 3.168, 4.224, 5.280, 6.336, 8.448, 16.896 PPM IN DRINK, Tumor Site: Type of Lesion: LIVER: HEPATOCELLULAR CARCINOMA, HEMANGIOMA, BILE DUCT: TUMOR) of the same compound?
A: active; positive
